The subject of assay [1] is C13* ovarian cancer cells (cisplatin-resistant). Put plainly: MTT cytotoxicity test, 72 h, cisplatin-resistant C13*. As to conditions: for R.F. (resistance factor): RF = IC50 resistant (C13*)/IC50 parental cells (2008); for IC50: cisplatin-resistant cells, 72 h, MTT test. In kind it is cell-based, human. The procedure:
(§1) Table 2 reported the IC50 values of the complexes against two types of ovarian cancer cells, one sensitive (2008) and one resistant to cisplatin (C13*). […] The resistance factor (R.F., the ratio among IC50 values obtained in resistant C13*cells and those calculated in the sensitive 2008 ones) calculated for all tested complexes resulted to be ≤2 (R.F. for cisplatin 11.1), strongly confirming the ability of the complexes to bypass cisplatin resistance.
(§2) Tested compounds were dissolved in DMSO and added to the cell-growth medium to a final solvent concentration of 0.5%, which is well reported to not have cytotoxic effects on cell viability. Cisplatin (Sigma Chemical Co., St. Louis, MO, USA) was dissolved in a physiologic solution (0.9% sodium chloride).
(§3) Human colon (HCT-15), pancreatic (PSN-1), and breast (MDA-MB-231) carcinoma-cell lines were obtained from the American Type Culture Collection (ATCC, Rockville, MD). Human cervical carcinoma (A431) cells were kindly provided by Prof. F. Zunino (Division of Experimental Oncology B, Istituto Nazionale dei Tumori, Milan). Human ovarian carcinoma (2008) cells and their cisplatin-resistant counterpart (C13*) were kindly provided by Prof. G. Marverti (Dipartimento di Scienze Biomediche, Università di Modena University, Italy). Cell lines were cultured in RPMI-1640 or DMEM medium (Euroclone) added with 10% fetal calf serum (Euroclone, Milan, Italy), antibiotics (50 units per mL penicillin, and 50 μg mL^−1 streptomycin), and 2 mM L-glutamine.
(§4) The growth inhibitory effect toward the tumour cell lines was evaluated by the MTT test as previously described.

Assay [2] relates to A431 (cervical) cancer cells. Put plainly: MTT cytotoxicity test, 72 h, A431. The format is cell-based, human. As to conditions: mean ± S.D. The procedure:
(§5) The in vitro anticancer potential of the newly developed complexes and of the ligands has been tested on six different cancer cell lines including PSN-1 (pancreatic), HCT-15 (colorectal with low sensitivity for cisplatin), 2008 (ovarian), A431 (cervical), MDA-MB-231 (breast), and U1285 (lung) cancer cells. For comparison purposes, cisplatin efficacy was assessed under the same experimental conditions.
as §2, §3, §4

Assay [3] deals with HCT-15 (colorectal with low sensitivity for cisplatin) cancer cells. Put plainly: MTT cytotoxicity test, 72 h, HCT-15. The format is cell-based, human. Particulars: mean ± S.D. The procedure: as §5, §2, §3, §4
Assay [4] relates to human pancreatic PSN-1 cancer-cell spheroids. Put plainly: 3D spheroid cytotoxicity, APH assay, 72 h. In kind it is cell-based. Particulars: for IC50: 3D spheroids, 72 h, APH test; for times more effective than cisplatin in 3D spheroids: PSN-1 3D spheroids, relative to cisplatin. The procedure: The cancer spheroids were treated with tested complexes for 72 h, and the cell viability was estimated by means of a modified acid phosphatase (APH) assay.
Spheroid cultures were performed by seeding 2.5 × 10^3 PSN-1 cancer cells/well in spheroid-suitable tissue culture untreated 96-well plates (Greiner Bio-one, Kremsmünster, Austria) in RPMI-1640 cell culture medium without phenol red (Sigma Chemical Co., St. Louis, MO, USA) containing 10% fetal calf serum and supplemented with 20% methyl cellulose stock solution.
An established APH-modified assay was used to detect the cytotoxicity profile in 3D spheroids, as previously described. IC50 values were calculated using a 4-PL model.

For another assay, the system named is DNA. Briefly: Ethidium bromide displacement assay. Particulars: EtBr displacement. In kind it is binding. On the procedure:
A number of research studies were performed on the elucidation of the mechanism of action of copper complexes in the past three decades. Despite several different molecular targets having been proposed for copper(II) complexes, DNA still represents one of the most substantiated when considering diamine ligands. On this basis, we thought it of interest to evaluate the ability of tested complexes to interact with DNA, both at molecular and cellular levels. An ethidium bromide (EB) displacement assay was used to understand if the complexes interact with the DNA at a molecular level. […] These values are very much in line with what was previously seen by us and also very close to the reported literature values of 2.60 × 10^7 M(bp^−1) and 3.04 × 10^7 M(bp^−1) for the bis complexes of [Cu(phen)2]^2+ and [Cu(DPQ)2]^2+ reported by Molphy et al.. […] It is largely possible that the presence of the 1,10-phenanthroline scaffold on compounds 3 and 4 is contributing to the increased displacement of the EtBr (probably by intercalation) and leading to a more noticeable decrease in the fluorescence.
EtBr displacement assays were performed in 10 mM phosphate buffer solution (pH 7.4) as described by Boger et al. The binding values were calculated using the % relative decrease of fluorescence at 50% and the equation below. (1) EEBEtBr/compound50%FI

In assay [5] the target is T1, protein disulphide isomerase (PDI) (Homo sapiens, UniProt P07237).
T1 construct: purchased Enzo Life Sciences, Lausen, Switzerland
T1 sequence (P07237 18-508): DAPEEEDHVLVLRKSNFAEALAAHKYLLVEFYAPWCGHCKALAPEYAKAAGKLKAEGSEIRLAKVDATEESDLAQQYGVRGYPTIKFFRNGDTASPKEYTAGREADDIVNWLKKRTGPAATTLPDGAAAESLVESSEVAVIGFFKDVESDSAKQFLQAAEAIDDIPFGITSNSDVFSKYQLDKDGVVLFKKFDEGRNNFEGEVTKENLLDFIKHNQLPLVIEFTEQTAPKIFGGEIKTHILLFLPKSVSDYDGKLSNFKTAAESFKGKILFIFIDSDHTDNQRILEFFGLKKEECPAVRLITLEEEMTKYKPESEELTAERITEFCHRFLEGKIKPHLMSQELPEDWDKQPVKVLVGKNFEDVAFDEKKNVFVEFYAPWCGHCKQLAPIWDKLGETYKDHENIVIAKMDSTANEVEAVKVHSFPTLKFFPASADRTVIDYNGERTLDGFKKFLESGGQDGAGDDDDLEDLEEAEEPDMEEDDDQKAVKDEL
Put plainly: PDI reductase activity (PROTEOSTAT PDI assay kit). In kind it is biochemical. As to conditions: 25 µM of complex. On the procedure:
MDA-MDB-231 cells were exposed for 3 h to 4 μM of tested compounds or 200 µM of the reference drug chlorambucil. […] On the other hand, some reports highlighted protein disulphide isomerase (PDI) as an emerging target for copper complexes.
The reductase activity of PDI was assayed by measuring the PDI-catalysed reduction of insulin in the presence of increasing concentrations of the tested compounds by using the PROTEOSTAT PDI assay kit (Enzo Life Sciences, Lausen, Switzerland). Experiments were performed according to the manufacturer’s instructions as previously described. IC50 values were calculated by the 4-PL model.
Figure 4 Mechanistic studies. (A) Comet assay: MDA-MDB-231 cells were treated for 3 h with 4 μM of tested compounds 2 and 4 or 200 µM of the reference drug chlorambucil. […] The PDI inhibitor Bacitracine (0.5 mM) was used as a positive control.

For another assay, the system named is noncancerous CHO cells. Briefly: Cytotoxicity against noncancerous CHO cells. The format is cell-based. As to conditions: for S.I. (selectivity index): average IC50 toward normal cells divided by the average IC50 for the malignant cells; for IC50: noncancerous cells.
Excerpt: In order to preliminarily assess the possible toxic effect on noncancerous cells, we also evaluated the cytotoxic potential of the newly developed Cu(II) complexes against noncancerous CHO cells (Table 3). For all tested complexes, calculated IC50 values were higher than those obtained (on average) against tumour cells, thus indicating for this class of metal complexes a slightly preferential cytotoxicity against cancer cells, as attested by the calculated selectivity index values (SI = the quotient of the average IC50 toward normal cells divided by the average IC50 for the malignant cells).
as §4

Assay [6] concerns 2008 (ovarian) cancer cells. Briefly: MTT cytotoxicity test, 72 h, 2008. The format is cell-based, human. On the procedure:
as §5, §1, §2, §3, §4

Assay [7] concerns U1285 (lung) cancer cells. Put plainly: MTT cytotoxicity test, 72 h, U1285. In kind it is cell-based, human. As to conditions: mean ± S.D., read-out: IC50 U-1285. On the procedure: as §5, §2, §4
The mark [8] stands for this setting: Table 2, cisplatin-sensitive parental cells.

Experimental findings from article PMC10222323, “Novel Biotinylated Cu(II)-Phenanthroline Complexes: 2D and 3D Cytotoxic Activity and Mechanistic Insight” (Molecules, 2023) are described below.

The structures appear in SMILES notation.

For the molecule `O=C(CCCC[C@@H]1SC[C@@H]2NC(=O)N[C@@H]21)NN=C1C(=O)c2ccc[n+]3c2-c2c1ccc[n+]2[Cu-2]3([Cl])[Cl]` [Complex 2, [Cu(phendione-biotin)Cl2]], in assay [1], the “R.F. (resistance factor)” value was found to be 1.0. Moreover, the IC50 in assay [1] was 1.1 ± 0.4 µM; in assay [2], 1.2 ± 0.5 µM; in assay [3], 0.4 ± 0.1 µM; in assay [4], 1.3 ± 0.5 µM; with noncancerous CHO cells, 5.2 ± 0.3 µM; in [6] (Table 1, mean ± S.D.), 1.1 ± 0.3 µM. Besides, the IC50 came out at 1.1 ± 0.3 µM in assay [6] (setting [8]) and 3.8 ± 0.5 µM in [7]. Further, the “times more effective than cisplatin in 3D spheroids” value in assay [4] is recorded as “about forty”. For the same molecule, in the assay on DNA, the “fluorescence quenching (in words)” value is “very small quenching”. Besides, the PDI inhibition in [5] was determined as 45%. Further, the “S.I. (selectivity index)” value in the assay with noncancerous CHO cells was 3.7.
With `O=C(CCCC[C@@H]1SC[C@@H]2NC(=O)N[C@@H]21)NN=C1C(=O)c2ccc[n+]3c2-c2c1ccc[n+]2[Cu-2]31[n+]2cccc3ccc4ccc[n+]1c4c32.O=[N+]([O-])[O-].O=[N+]([O-])[O-]` [Complex 4, [Cu(phen)(phendione-biotin)](NO3)2], the “R.F. (resistance factor)” value in [1] came out at 1.9. The half-inhibitory concentration (IC50) in [1] came out at 1.1 ± 0.3 µM; in [2] it was 0.3 ± 0.03 µM; in assay [3] it was 0.4 ± 0.02 µM; in [4], 6.9 ± 1.3 µM; in the assay on noncancerous CHO cells it was 1.8 ± 0.7 µM; in assay [6] (Table 1, mean ± S.D.) it was 0.6 ± 0.2 µM. Besides, the IC50 in assay [6] (setting [8]) is 0.6 ± 0.2 µM; in [7], 2 ± 0.6 µM. Moreover, the “times more effective than cisplatin in 3D spheroids” value in assay [4] is “eight”. For the same molecule, the “fluorescence quenching (in words)” value in the assay on DNA was “highest quenching values”. In the assay on DNA, the relative fluorescence decrease entry was “greater than 50%”. In addition, the binding constant in the assay on DNA (10 mM phosphate buffer pH 7.4, from 50% fluorescence decrease) is on record as 1.28 × 10^7 M(bp^−1). In assay [5], this molecule had a PDI inhibition of 15%. Also, in the assay with noncancerous CHO cells, the “S.I. (selectivity index)” value was 2.3.
